Common to all, as to test: relative viability (nuclei count vs DMSO), 5 days (fraction); higher = more cells survive
Compound in experiment [1]: C1=CC2=C(C=C(C(=C2N=C1)O)N=NC3=CC4=C(C=C3)C=C(C=C4)S(=O)(=O)O)S(=O)(=O)O
In short, it runs like this:
(§1)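 Viability is treated-well nuclei as a fraction of vehicle-well nuclei, reported as the median across plates. Before counting, lung cancer cell lines were kept overnight at 37 °C in 1536-well plates, pinned with five √10-spaced library-drug doses on vehicle-anchored plates, and left 5 days without medium change, then fixed, permeabilised and Hoechst-stained in one step, imaged at 4× and counted by MetaXpress. A plate passed only if control CV was below 25% and at least one doubling occurred.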

Compound in experiment [2]: O=C(NC1CCNCC1)c1n[nH]cc1NC(=O)c1c(Cl)cccc1Cl [AT-7519]
An outline of the steps: as §1

Compound in experiment [3]: C1=CC2=C(C=C(C(=C2N=C1)O)N=NC3=CC4=C(C=C3)C=C(C=C4)S(=O)(=O)O)S(=O)(=O)O + COc1cc2c(Oc3ccc(NC(=O)C4(C(=O)Nc5ccc(F)cc5)CC4)cc3F)ccnc2cc1OCCCN1CCOCC1 [Foretinib] (partner 0.25 µM)
An outline of the steps: (§2)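 Lung cancer cell lines were pin-tool dosed in 1536-well plates on the day after seeding, with either a lone drug or a fixed anchor-drug dose plus five library-drug doses (not always all listed) in √10 steps. Nuclei were counted on 4× images after 5 days. Relative viability is the ratio of treated-well to vehicle-well nuclei counts, with each value a median of duplicate plates.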

Compound in experiment [4]: O=C(NC1CCNCC1)c1n[nH]cc1NC(=O)c1c(Cl)cccc1Cl [AT-7519] + CC(=O)c1c(C)c2cnc(Nc3ccc(N4CCNCC4)cn3)nc2n(C2CCCC2)c1=O [Palbociclib] (partner 0.5 µM)
An outline of the steps:
as §2

In the case of UMC-11, the relative viability in experiment [1] (0.08 µM) amounted to 1.11; in experiment [1] (0.253 µM), 0.942; in experiment [1] (0.8 µM) it was 0.925; in experiment [1] (2.53 µM), 1.02; in experiment [1] (8 µM) it was 0.92; in experiment [2] (0.01 µM), 0.951. Besides, the relative viability stood at 0.934 in experiment [2] (0.03162 µM); 0.765 in experiment [2] (0.3162 µM); 0.499 in experiment [2] (1 µM); 1.13 in experiment [3] (first compound 0.08 µM); 1.04 in experiment [3] (first compound 0.253 µM); 0.938 in experiment [3] (first compound 0.8 µM). Also, the relative viability in experiment [3] (first compound 2.53 µM) was 1.05; in experiment [3] (first compound 8 µM), 1.01; in experiment [4] (first compound 0.01 µM), 0.319; in experiment [4] (first compound 0.03162 µM) it was 0.328; in experiment [4] (first compound 0.3162 µM) it was 0.283; in experiment [4] (first compound 1 µM), 0.25.

Values taken from the supplement of paper PMC10307832.
